For 73 molecules, IC50 results are on record in patent publication US8013006B2.

One experiment concerns HCV replicon. The experiment is described as follows: microbe, parasite or virus in culture. The format is cell-based. Conditions: Hepatitis C virus, 48 h, read-out: Replicon IC5Os.
On to `CCn1c(-c2ccc(NC(=O)OCCCl)cc2)c(C#N)c2ccc(OC)cc21` [Compound 637], for which the IC50 was less than 500 nM.
On the same count and under the same terms, in the case of `CCCS(=O)(=O)Nc1ccccc1-c1c(C#N)c2ccc(OC)cc2n1CC` [Compound 662] it was less than 500 nM.
As to `CCn1c(-c2ccc(N(C)S(=O)(=O)CCN3CCCC3)cc2)c(C#N)c2ccc(OC)cc21` [Compound 697], the IC50 was less than 500 nM.
As to `CCn1c(-c2ccc(N(C)S(=O)(=O)CCN3CCSCC3)cc2)c(C#N)c2ccc(OC)cc21` [Compound 698], the IC50 was 500 to 2000 nM.
For `COc1ccc2c(C#N)c(-c3ccc(N4CCCS4(=O)=O)cc3)n(CC3CC3)c2c1` [Compound 716, 2-[4-(1,1-dioxidoisothiazolidin-2-yl)phenyl]-1-cyclopropylmethyl-6-methoxy-1H-indole-3-carbonitrile], the IC50 lay in the range of 500 to 2000 nM.
The same measure, in the same setting: then `CCOC(=O)Nc1cccc(-c2c(C#N)c3ccc(OC(F)F)cc3n2CC2CC2)c1` [Compound 745], with less than 500 nM.
The same measure, in the same setting: then `CCn1c(-c2ccc(NC(=O)c3ccno3)cc2)c(C#N)c2ccccc21` [Compound 755], with less than 500 nM; and `CCn1c(-c2ccc(NC(=O)c3snnc3C)cc2)c(C#N)c2ccccc21` [Compound 756], with less than 500 nM; and `CCC(=O)Nc1ccc(-c2c(C#N)c3ccc(OC(C)C)cc3n2CC)cc1` [Compound 759], with less than 500 nM.
On the same count and under the same terms, in the case of `CCn1c(-c2ccc(NC(=O)C3CCC3)cc2)c(C#N)c2ccc(OC(C)C)cc21` [Compound 760] it was less than 500 nM.

The same experiment, now with this note: Replicon IC50 values are determined by firefly luciferase signal; bicistronic replicon, 2 days; read-out: Replicon IC5Os.
`C=CC(C)OC(=O)Nc1cccc(-c2c(C#N)c3ccc(OC(C)C)cc3n2CC)c1` (stereo not shown) [Compound 597]: the IC50 was more than 2000 nM.
Same read-out and setting: in the case of `CCCn1c(-c2cccc(NS(=O)(=O)CC)c2)c(C#N)c2ccc(OC)cc21` [Compound 599] it was more than 2000 nM; in that of `CCCNC(=O)Nc1cccc(-c2c(C#N)c3ccc(OC)cc3n2CCC)c1` [Compound 600], more than 2000 nM.
Same read-out and setting: then `CCOC(=O)Nc1cc(-c2c(C#N)c3ccc(OC(C)C)cc3n2CC)ccc1OC` [Compound 603], with more than 2000 nM; and `CCOC(=O)Nc1ccc(F)c(-c2c(C#N)c3ccc(OC(C)C)cc3n2CC)c1` [Compound 604], with more than 2000 nM; and `CCOC(=O)Nc1cccc(-c2c(C#N)c3cc(N4CCOCC4)ccc3n2CC)c1` [Compound 605], with more than 2000 nM.
For the molecule `CCCS(=O)(=O)Nc1ccc(-c2c(C#N)c3cc(N4CCOCC4)ccc3n2CC)cc1` [Compound 608], the IC50 was in the range of 500 to 2000 nM.
Consider `CCn1c(-c2ccc(NS(=O)(=O)CC)cc2)c(C#N)c2cc(N3CCOCC3)ccc21` [Compound 609], for which the IC50 lay in the range of 500 to 2000 nM.
Same read-out and setting: in the case of `CCn1c(-c2ccc(NS(=O)(=O)CC(F)(F)F)cc2)c(C#N)c2cc(Cl)ccc21` [Compound 615] it was more than 2000 nM; in that of `CCNC(=O)Nc1ccc(-c2c(C#N)c3cc(Cl)ccc3n2CC)cc1` [Compound 620], 500 to 2000 nM.
Same read-out and setting: in the case of `CCCn1c(-c2ccc(NC(=O)OCC)cc2)c(C#N)c2ccc(OC)cc21` [Compound 624] it was 500 to 2000 nM; in that of `CCCOC(=O)Nc1ccc(-c2c(C#N)c3ccc(OC)cc3n2CCC)cc1` [Compound 625], less than 500 nM.
The same measure, in the same setting: in the case of `CCn1c(-c2cccc(NS(=O)(=O)CCCCl)c2)c(C#N)c2cc(Cl)ccc21` [Compound 629] it was more than 2000 nM; in that of `CC(C)CCn1c(-c2ccc(NS(C)(=O)=O)cc2)c(C#N)c2cc(Cl)ccc21` [Compound 630], 500 to 2000 nM; in that of `C=Cn1c(-c2ccc(NS(C)(=O)=O)cc2)c(C#N)c2ccc(OC)cc21` [Compound 632], 500 to 2000 nM.
Regarding `C=Cn1c(-c2ccc(NS(=O)(=O)CCC)cc2)c(C#N)c2ccc(OC)cc21` [Compound 634], the IC50 lay in the range of 500 to 2000 nM.
The same measure, in the same setting: in the case of `C=Cn1c(-c2ccc(NS(=O)(=O)CCCCl)cc2)c(C#N)c2ccc(OC)cc21` [Compound 636] it was less than 500 nM; in that of `CCCn1c(-c2cccc(NS(=O)(=O)CCC)c2)c(C#N)c2ccc(OC)cc21` [Compound 639], more than 2000 nM; in that of `CCCn1c(-c2ccc(NC(=O)OCCF)cc2)c(C#N)c2ccc(OC)cc21` [Compound 640], 500 to 2000 nM.
Same read-out and setting: in the case of `CCCn1c(-c2ccc(N(C)S(=O)(=O)CC)cc2)c(C#N)c2ccc(OC)cc21` [Compound 643] it was 500 to 2000 nM.
Still for that read-out and setting: in the case of `CCC(=O)Nc1ccc(-c2c(C#N)c3cc(OC)ccc3n2CC)cc1` [Compound 644] it was more than 2000 nM; in that of `CCn1c(-c2ccc(NC(=O)c3ccc4c(c3)OCO4)cc2)c(C#N)c2ccccc21` [Compound 645], more than 2000 nM; in that of `CCn1c(-c2ccc(NC(=O)c3ccco3)cc2)c(C#N)c2ccccc21` [Compound 646], 500 to 2000 nM.
With `CCn1c(-c2ccc(C(=O)Nc3ccc(Cl)cc3)cc2)c(C#N)c2cc(OC)ccc21` [Compound 647], the IC50 is more than 2000 nM.
Still for that read-out and setting: then `CCn1c(-c2ccc(C(=O)Nc3ccc(Cl)c(Cl)c3)cc2)c(C#N)c2cc(OC)ccc21` [Compound 648], with 500 to 2000 nM; and `CCCn1c(-c2ccc(N3CCCS3(=O)=O)cc2)c(C#N)c2ccc(OC)cc21` [Compound 649], with 500 to 2000 nM; and `CCn1c(-c2ccc(NS(=O)(=O)CCN3CCSCC3)cc2)c(C#N)c2ccc(OC)cc21` [Compound 654], with more than 2000 nM.
The same measure, in the same setting: in the case of `COc1ccc2c(C#N)c(-c3ccc(NS(C)(=O)=O)cc3)n(CC3CCCC3)c2c1` [Compound 655] it was more than 2000 nM; in that of `CCn1c(-c2ccc(N)cc2)c(C#N)c2ccc(OC(F)(F)F)cc21` [Compound 656], more than 2000 nM.
Still for that read-out and setting: in the case of `CCn1c(-c2ccc(NS(=O)(=O)CC)cc2)c(C#N)c2c(Cl)cccc21` [Compound 657] it was more than 2000 nM; in that of `N#Cc1c(-c2ccc(N3CCCS3(=O)=O)cc2)n(CC2CC2)c2cc(OC(F)F)ccc12` [Compound 659], 500 to 2000 nM.
As for `CC(C)Oc1ccc2c(C#N)c(-c3ccc(O)c(N)c3)[nH]c2c1` [Compound 663], the IC50 was more than 2000 nM.
Turning to `CCCOC(=O)Nc1ccc(F)c(-c2c(C#N)c3ccc(OC(C)C)cc3n2CC)c1` [Compound 664], the IC50 was more than 2000 nM.
Still for that read-out and setting: then `CCn1c(-c2cc(NC(=O)OCCCl)ccc2F)c(C#N)c2ccc(OC(C)C)cc21` [Compound 665], with more than 2000 nM; and `CCn1c(-c2cccc(CN(C)S(C)(=O)=O)c2)c(C#N)c2ccc(OC)cc21` [Compound 673], with more than 2000 nM.
On the same count and under the same terms, then `CCS(=O)(=O)Nc1ccc(-c2c(C#N)c3ccc(OC)cc3n2CCOC)cc1` [Compound 674], with more than 2000 nM; and `CCn1c(-c2ccc3c(c2)CCN3)c(C#N)c2ccc(OC)cc21` [Compound 678], with more than 2000 nM.
Same read-out and setting: in the case of `CCCS(=O)(=O)Nc1ccc(-c2c(C#N)c3ccc(OC(F)F)cc3n2CC2CC2)cc1` [Compound 682] it was 500 to 2000 nM; in that of `N#Cc1c(-c2ccc(NS(=O)(=O)CCCCl)cc2)n(CC2CC2)c2cc(OC(F)F)ccc12` [Compound 683], 500 to 2000 nM; in that of `CCS(=O)(=O)N(C)c1ccc(-c2c(C#N)c3ccc(OC)cc3n2C(C)C)cc1` [Compound 684], more than 2000 nM.
For the molecule `CCCn1c(-c2ccc(N(C)S(=O)(=O)CC)cc2)c(C#N)c2ccc(OC(F)F)cc21` [Compound 685], the IC50 lay within 500 to 2000 nM.
Same read-out and setting: then `CCS(=O)(=O)N(C)c1ccc(-c2c(C#N)c3ccc(OC)cc3n2CC2CC2)cc1` [Compound 686], with 500 to 2000 nM.
The same measure, in the same setting: in the case of `CCS(=O)(=O)N(C)c1ccc(-c2c(C#N)c3ccc(OC(F)F)cc3n2C)cc1` [Compound 687] it was less than 500 nM; in that of `COc1ccc2c(C#N)c(-c3ccc(N(C)S(C)(=O)=O)cc3)n(CC3CC3)c2c1` [Compound 688], 500 to 2000 nM; in that of `CCS(=O)(=O)N(C)c1ccc(-c2c(C#N)c3ccc(OC)cc3n2C)cc1` [Compound 694], 500 to 2000 nM.
Still for that read-out and setting: in the case of `CCCn1c(-c2ccc(N(C)S(C)(=O)=O)cc2)c(C#N)c2ccc(OC)cc21` [Compound 695] it was 500 to 2000 nM; in that of `COc1ccc2c(C#N)c(-c3ccc(N(C)S(C)(=O)=O)cc3)n(C(C)C)c2c1` [Compound 696], 500 to 2000 nM.
Regarding `CCCS(=O)(=O)N1CCc2cc(-c3c(C#N)c4ccc(OC)cc4n3CC)ccc21` [Compound 703], the IC50 lay within 500 to 2000 nM.
In the case of `CCn1c(-c2cccc(NS(=O)(=O)NCCCl)c2)c(C#N)c2ccc(OC)cc21` [Compound 704], the IC50 was more than 2000 nM.
On the same count and under the same terms, in the case of `CCn1c(-c2cccc(N3CCNS3(=O)=O)c2)c(C#N)c2ccc(OC)cc21` [Compound 705] it was more than 2000 nM.
Still for that read-out and setting: then `CCCCn1c(-c2ccc(NS(=O)(=O)CCC)cc2)c(C#N)c2ccc(OC)cc21` [Compound 708], with 500 to 2000 nM; and `CCn1c(-c2ccc3[nH]ccc3c2)c(C#N)c2ccc(OC)cc21` [Compound 712], with more than 2000 nM; and `N#Cc1cn(CC2CC2)c2cc(OC(F)(F)F)ccc12` [Compound 714], with 500 to 2000 nM.
For `CCn1c(-c2ccc(NS(C)(=O)=O)cc2)c(C#N)c2ccc(OC(F)(F)F)cc21` [Compound 715], the IC50 is less than 500 nM.
Still for that read-out and setting: in the case of `COc1ccc2c(C#N)c(-c3ccc(S(=O)(=O)NC4CC4)cc3)n(CC3CCCC3)c2c1` [Compound 718] it was 500 to 2000 nM.
Same read-out and setting: then `COc1ccc2c(C#N)c(-c3ccc(S(N)(=O)=O)cc3)n(CC3CCCC3)c2c1` [Compound 719], with more than 2000 nM.
Same read-out and setting: then `CCn1c(-c2ccc(N3CCCS3(=O)=O)cc2)c(C#N)c2ccc(OCCN3CCCC3)cc21` [Compound 728], with less than 500 nM.
As to `CCn1c(-c2ccc(N3CCCS3(=O)=O)cc2)c(C#N)c2ccc(OCCN3CCOCC3)cc21` [Compound 730], the IC50 was less than 500 nM.
Regarding `N#Cc1c(-c2ccc(N)cc2)n(CC2CC2)c2cc(OC(F)F)ccc12` [Compound 733], the IC50 was more than 2000 nM.
On the same count and under the same terms, in the case of `COCCOC(=O)Nc1ccc(-c2c(C#N)c3ccc(OC(F)F)cc3n2CC2CC2)cc1` [Compound 739] it was more than 2000 nM; in that of `CCNC(=O)Nc1ccc(-c2c(C#N)c3ccc(OC(F)F)cc3n2CC2CC2)cc1` [Compound 740], 500 to 2000 nM.
Same read-out and setting: then `CCCOC(=O)Nc1cccc(-c2c(C#N)c3ccc(OC(F)F)cc3n2CC2CC2)c1` [Compound 746], with more than 2000 nM; and `CCCS(=O)(=O)N1CCc2ccc(-c3c(C#N)c4ccc(OC)cc4n3CC)cc21` [Compound 754], with 500 to 2000 nM.
